In US20150274719A1, “AMINO-SUBSTITUTED IMIDAZO[1,2-A]PYRIDINECARBOXAMIDES AND THEIR USE” (BAYER PHARMA AKTIENGESELLSCHAFT, priority 2012, published 2015):

Each compound was assayed against T1, recombinant guanylate cyclase reporter cell line (Rattus norvegicus, UniProt P19686+P20595) (assay: Action on recombinant guanylate cyclase reporter cell line). Settings: in some cases mean values from individual determinations.
T1 construct: expressed in transfected cells; host or cells: recombinant reporter cell line
T1 sequence (P19686 1-690): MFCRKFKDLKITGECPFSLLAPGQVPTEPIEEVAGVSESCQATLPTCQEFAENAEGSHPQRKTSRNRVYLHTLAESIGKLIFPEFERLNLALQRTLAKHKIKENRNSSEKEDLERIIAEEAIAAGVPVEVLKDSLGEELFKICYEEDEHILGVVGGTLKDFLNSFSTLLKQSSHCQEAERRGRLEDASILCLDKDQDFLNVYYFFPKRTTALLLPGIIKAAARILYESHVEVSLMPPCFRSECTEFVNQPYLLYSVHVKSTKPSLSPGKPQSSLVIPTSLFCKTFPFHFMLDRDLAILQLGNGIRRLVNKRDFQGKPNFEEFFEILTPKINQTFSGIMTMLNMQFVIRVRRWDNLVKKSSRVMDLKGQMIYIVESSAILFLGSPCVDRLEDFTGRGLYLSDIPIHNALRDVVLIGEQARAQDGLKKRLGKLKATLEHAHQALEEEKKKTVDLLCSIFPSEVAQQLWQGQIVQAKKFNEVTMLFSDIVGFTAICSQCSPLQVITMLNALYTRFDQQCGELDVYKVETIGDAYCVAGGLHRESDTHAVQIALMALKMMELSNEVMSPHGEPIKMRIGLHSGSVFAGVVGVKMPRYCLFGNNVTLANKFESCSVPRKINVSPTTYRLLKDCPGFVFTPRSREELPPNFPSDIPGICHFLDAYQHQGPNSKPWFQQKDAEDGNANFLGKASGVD
T1 sequence (P20595 1-619): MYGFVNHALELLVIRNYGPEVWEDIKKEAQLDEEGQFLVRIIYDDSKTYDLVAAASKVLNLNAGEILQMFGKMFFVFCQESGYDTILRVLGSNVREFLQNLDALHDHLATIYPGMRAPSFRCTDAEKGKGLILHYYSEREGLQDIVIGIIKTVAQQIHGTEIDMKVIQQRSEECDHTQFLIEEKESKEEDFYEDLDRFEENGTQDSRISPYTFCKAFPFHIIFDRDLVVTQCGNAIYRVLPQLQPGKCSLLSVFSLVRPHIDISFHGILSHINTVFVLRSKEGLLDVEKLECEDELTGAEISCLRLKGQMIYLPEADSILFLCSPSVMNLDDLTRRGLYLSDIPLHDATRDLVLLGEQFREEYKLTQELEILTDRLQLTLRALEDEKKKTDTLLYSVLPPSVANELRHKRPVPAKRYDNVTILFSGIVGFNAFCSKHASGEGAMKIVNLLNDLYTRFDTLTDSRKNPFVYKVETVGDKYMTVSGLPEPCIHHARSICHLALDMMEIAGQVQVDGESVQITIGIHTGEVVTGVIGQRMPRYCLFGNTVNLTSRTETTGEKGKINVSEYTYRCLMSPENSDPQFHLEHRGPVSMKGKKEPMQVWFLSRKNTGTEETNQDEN
Assay type: cell-based
Method in brief: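 Reported value is the minimal effective concentration (MEC), in some cases a mean of single runs, taken from a recombinant rat guanylate cyclase reporter cell line.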
For `Cc1cc(OC(C)c2c(F)cccc2F)c2nc(C)c(C(=O)NCC(C)(C)N)n2c1` (single isomer, unassigned; enantiomer b) [Example 256, ent-N-(2-Amino-2-methylpropyl)-8-[1-(2,6-difluorophenyl)ethoxy]-2,6-dimethylimidazo[1,2-a]-pyridine-3-carboxamide (Enantiomer B)], the “MEC (minimal effective concentration)” value was 3.00 µM.
`Cc1nc2c(OCc3c(F)cccc3F)cccn2c1C(=O)NC(CN)CC(C(F)(F)F)C(F)(F)F` (single isomer, unassigned; enantiomer a) [Example 7, ent-N-[1-Amino-5,5,5-trifluoro-4-(trifluoromethyl)pentan-2-yl]-8-[(2,6-difluorobenzyl)oxy]-2-methylimidazo[1,2-a]pyridine-3-carboxamide (Enantiomer A)] was tested, and the “MEC (minimal effective concentration)” value was 1.00 µM.
With `COCC(C)(N)CNC(=O)c1c(C)nc2c(OCc3c(F)cccc3F)cccn12` (single isomer, unassigned) [Example 214, ent-N-(2-Amino-3-methoxy-2-methylpropyl)-8-[(2,6-difluorobenzyl)oxy]-2-methylimidazo[1,2-a]-pyridine-3-carboxamide] the “MEC (minimal effective concentration)” value was 0.30 µM.
For `Cc1cc(OCc2c(F)cccc2F)c2nc(C)c(C(=O)NCCN3C[C@@H](C)O[C@@H](C)C3)n2c1` [Example 167, 8-[(2,6-difluorobenzyl)oxy]-N-{2-[(2R,6S)-2,6-dimethylmorpholin-4-yl]ethyl}-2,6-dimethyl-imidazo[1,2-a]pyridine-3-carboxamide], the “MEC (minimal effective concentration)” value was 1.00 µM.
`CCCC[C@H](CN(CC)CC)NC(=O)c1c(C)nc2c(OCc3c(F)cccc3F)cccn12` [Example 69, ent-8-[(2R)-1-(diethylamino)hexan-2-yl]-8-[(2,6-difluorobenzyl)oxy]-2-methylimidazo[1,2-a]-pyridine-3-carboxamide] was tested, and the “MEC (minimal effective concentration)” value was 1.00 µM.
In the case of `Cc1nc2c(OCc3c(F)cccc3F)cccn2c1C(=O)NC1CN2CCC1CC2` (stereo not shown) [Example 92, N-(1-azabicyclo[2.2.2]oct-3-yl)-8-[(2,6-difluorobenzyl)oxy]-2-methylimidazo[1,2-a]-pyridine-3-carboxamide], the “MEC (minimal effective concentration)” value is reported as 0.30 µM.
For `Cc1cc(OCc2c(F)cccc2F)c2nc(C)c(C(=O)NCC(C)(N)CC(C)C)n2c1` (single isomer, unassigned) [Example 220, ent-N-(2-Amino-2,4-dimethylpentyl)-8-[(2,6-difluorobenzyl)oxy]-2,6-dimethylimidazo[1,2-a]-pyridine-3-carboxamide], the “MEC (minimal effective concentration)” value was 0.10 µM.
With `Cc1nc2c(OCc3c(F)cccc3F)cccn2c1C(=O)NCC(N)C(F)(F)F` (single isomer, unassigned) [Example 208, ent-N-(2-Amino-3,3,3-trifluoropropyl)-8-[(2,6-difluorobenzyl)oxy]-2-methylimidazo[1,2-a]-pyridine-3-carboxamide] the “MEC (minimal effective concentration)” value was 0.30 µM.
With `Cc1cc(OCc2c(F)cccc2F)c2nc(C)c(C(=O)NC(C)CN)n2c1` (stereo not drawn) [Example 48, ent-N-(1-Aminopropan-2-yl)-8-[(2,6-difluorobenzyl)oxy]-2,6-dimethylimidazo[1,2-a]pyridine-3-carboxamide] the “MEC (minimal effective concentration)” value was 1.00 µM.
`COC(=O)[C@@H](N)CNC(=O)c1c(C)nc2c(OCc3c(F)cccc3F)cc(C)cn12` [Example 319, Methyl 3-[({8-[(2,6-difluorobenzyl)oxy]-2,6-dimethylimidazo[1,2-a]pyridin-3-yl}carbonyl)amino]-L-alaninate] was tested, and the “MEC (minimal effective concentration)” value was 0.30 µM.
In the case of `Cc1cc(OCc2c(F)cccc2F)c2nc(C)c(C(=O)NC3CCCCNC3)n2c1` (racemic) [Example 316, rac-N-(azepan-3-yl)-8-[(2,6-difluorobenzyl)oxy]-2,6-dimethylimidazo[1,2-a]pyridine-3-carboxamide], the “MEC (minimal effective concentration)” value is reported as 0.30 µM.
For `Cc1nc2c(OCc3c(F)cccc3F)cccn2c1C(=O)NCC(C(C)C)N(C)C` (single isomer, unassigned; ent-8) [Example 189, ent-8-[(2,6-Difluorobenzyl)oxy]-N-[2-(dimethylamino)-3-methylbutyl]-2-methylimidazo[1,2-a]-pyridine-3-carboxamide], the “MEC (minimal effective concentration)” value was 3.00 µM.
In the case of `Cc1cc(OCc2c(F)cccc2F)c2nc(C)c(C(=O)NC(CN)c3csc4ccccc34)n2c1` (racemic) [Example 389, rac-N-[2-amino-1-(1-benzothiophen-3-yl)ethyl]-8-[(2,6-difluorobenzyl)oxy]-2,6-dimethylimidazo[1,2-a]pyridine-3-carboxamide], the “MEC (minimal effective concentration)” value is reported as 1.00 µM.
In the case of `Cc1nc2c(OCc3c(F)cccc3F)cc(Cl)cn2c1C(=O)NCC1CCCCN1` (single isomer, unassigned; ent-6) [Example 191, ent-6-Chloro-8-[(2,6-difluorobenzyl)oxy]-2-methyl-N-(piperidin-2-ylmethyl)imidazo[1,2-a]-pyridine-3-carboxamide], the “MEC (minimal effective concentration)” value is reported as 1.00 µM.
With `Cc1cc(OCc2c(F)cccc2F)c2nc(C)c(C(=O)NC(CN)c3ccc(C#N)cc3)n2c1` (stereo not shown) [Example 398] the “MEC (minimal effective concentration)” value was 0.30 µM.
`Cc1cc(OCc2c(F)cccc2F)c2nc(C)c(C(=O)NCC(N)c3cnn(C)c3)n2c1` (racemic) [Example 370, rac-N-[2-amino-2-(1-methyl-1H-pyrazol-4-yl)ethyl]-8-[(2,6-difluorobenzyl)oxy]-2,6-dimethylimidazo[1,2-a]pyridine-3-carboxamide] was tested, and the “MEC (minimal effective concentration)” value was 3.00 µM.
With `Cc1cc(OCc2c(F)cccc2F)c2nc(C)c(C(=O)NCCN3CCN(C)CC3)n2c1` [Example 137, 8-[(2,6-difluorobenzyl)oxy]-2,6-dimethyl-N-[2-(4-methylpiperazin-1-yl)ethyl]imidazo[1,2-a]-pyridine-3-carboxamide] the “MEC (minimal effective concentration)” value was 1.00 µM.
With `Cc1nc2c(OCc3c(F)cccc3F)cc(Cl)cn2c1C(=O)NCCC(C)(C)N` [Example 104, N-(3-Amino-3-methylbutyl)-6-chloro-8-[(2,6-difluorobenzyl)oxy]-2-methylimidazo[1,2-a]-pyridine-3-carboxamide] the “MEC (minimal effective concentration)” value was 0.30 µM.
In the case of `Cc1cc(OCc2c(F)cccc2F)c2nc(C)c(C(=O)NCC(C)N3CCOCC3)n2c1` (single isomer, unassigned; ent-8) [Example 187, ent-8-[(2,6-Difluorobenzyl)oxy]-2,6-dimethyl-N-[2-(morpholin-4-yl)propyl]imidazo[1,2-a]-pyridine-3-carboxamide], the “MEC (minimal effective concentration)” value is reported as 0.30 µM.
`Cc1cc(OCc2c(F)cccc2F)c2nc(C)c(C(=O)NC3CNCC3F)n2c1` (racemic) [Example 347, rac-8-[(2,6-Difluorobenzyl)oxy]-N-(4-fluoropyrrolidin-3-yl)-2,6-dimethylimidazo[1,2-a]pyridine-3-carboxamide] was tested, and the “MEC (minimal effective concentration)” value was 1.00 µM.
For `CCCC(C)(N)CNC(=O)c1c(C)nc2c(OCc3cccc(F)c3)cc(C)cn12` (racemic) [Example 348, rac-N-(2-amino-2-methylpentyl)-8-[(3-fluorobenzyl)oxy]-2,6-dimethylimidazo[1,2-a]pyridine-3-carboxamide], the “MEC (minimal effective concentration)” value was 1.00 µM.
In the case of `Cc1cc(OCc2c(F)cccc2F)c2nc(C)c(C(=O)NC3CCNCC3(F)F)n2c1` (racemic) [Example 299, rac-8-[(2,6-difluorobenzyl)oxy]-N-(3,3-difluoropiperidin-4-yl)-2,6-dimethylimidazo[1,2-a]pyridine-3-carboxamide], the “MEC (minimal effective concentration)” value is reported as 0.10 µM.
